We go through three molecules from ChEMBL document CHEMBL1212867, “Anhydrotetracycline-peptide conjugates as representatives for ligand-based transactivating systems” (Bioorg Med Chem, 2010).

The subject of test [1] is HeLa. Put plainly: Transactivation of Reverse transactivator Tet repressor-S3 SL439, FG442, SL444 and FA475 mutant expressed in human HeLa cells at 5 uM after 24 hrs by luciferase reporter gene assay relative to untreated basal level. The format is cell-based. (In general: In a reporter assay the amount or activity of a reporter protein is the signal.)
The test system of test [2] is HeLa. Put plainly: Transactivation of reverse transactivator Tet repressor-S3 expressed in human HeLa cells at 5 uM after 24 hrs by luciferase reporter gene assay relative to anhydrotetracycline. The format is cell-based.

Non-standard residues stand in square brackets, D forms with d. Residues, ends and D or L forms follow the SMILES beside them. *: point of attachment. X1 = Cc1c2c(c(O)c3c(O)c(N*)ccc13)C(=O)[C@]1(O)C(=O)C(C(N)=O)=C(O)[C@@H](N(C)C)[C@@H]1C2; AEEEA = NCCOCCOCCOCC(=O)O

In turn, `Cc1c2c(c(O)c3c(O)cccc13)C(=O)[C@]1(O)C(=O)C(C(N)=O)=C(O)[C@@H](N(C)C)[C@@H]1C2` gave a fold change (FC) in the test with HeLa [1] of 3.
For the molecule `CSCC[C@H](NC(=O)[C@H](CC(=O)O)NC(=O)[C@H](CC(C)C)NC(=O)[C@H](CC(=O)O)NC(=O)[C@H](Cc1ccccc1)NC(=O)[C@@H](N)CC(=O)O)C(=O)N[C@@H](CC(C)C)C(=O)NCC(=O)NCCOCCOCCOCC(=O)Nc1ccc2c(C)c3c(c(O)c2c1O)C(=O)[C@]1(O)C(=O)C(C(N)=O)=C(O)[C@@H](N(C)C)[C@@H]1C3` (H-DFDLDMLG[AEEEA]-X1), the Activity in the test with HeLa [2] came out at 150%.
Turning to `CSCC[C@H](NC(=O)[C@H](CC(=O)O)NC(=O)[C@H](CC(C)C)NC(=O)[C@H](CC(=O)O)NC(=O)[C@H](Cc1ccccc1)NC(=O)[C@H](CC(=O)O)NC(=O)CNC(=O)[C@H](CC(C)C)NC(=O)[C@H](CCSC)NC(=O)[C@H](CC(=O)O)NC(=O)[C@H](CC(C)C)NC(=O)[C@H](CC(=O)O)NC(=O)[C@H](Cc1ccccc1)NC(=O)[C@H](CC(=O)O)NC(=O)COCCOCCOCCN)C(=O)N[C@@H](CC(C)C)C(=O)NCC(=O)NCCOCCOCCOCC(=O)Nc1ccc2c(C)c3c(c(O)c2c1O)C(=O)[C@]1(O)C(=O)C(C(N)=O)=C(O)[C@@H](N(C)C)[C@@H]1C3` (H-[AEEEA]DFDLDMLGDFDLDMLG[AEEEA]-X1), the Activity in the test with HeLa [2] worked out at 190%. In the test on HeLa [1], this molecule yielded a fold change (FC) of 9.
